Laboratory results from patent US10988455B2, “1,2,4-triazine-4-amine derivatives” (Heptares Therapeutics Limited, priority 2010, dated 2021).

Biological target: human adenosine A1 receptor (Homo sapiens (Human), UniProt P30542)
Experiment: CHO-hA1 [3H]DPCPX binding assay (Test A)
Conditions: CHO membranes, 1 nM [3H]DPCPX, 25° C., 1 h
Procedure: (§1) All test compounds were prepared as a stock solution of 10 mM in 100% DMSO.

human adenosine A1 receptor, sequence (P30542 whole entry): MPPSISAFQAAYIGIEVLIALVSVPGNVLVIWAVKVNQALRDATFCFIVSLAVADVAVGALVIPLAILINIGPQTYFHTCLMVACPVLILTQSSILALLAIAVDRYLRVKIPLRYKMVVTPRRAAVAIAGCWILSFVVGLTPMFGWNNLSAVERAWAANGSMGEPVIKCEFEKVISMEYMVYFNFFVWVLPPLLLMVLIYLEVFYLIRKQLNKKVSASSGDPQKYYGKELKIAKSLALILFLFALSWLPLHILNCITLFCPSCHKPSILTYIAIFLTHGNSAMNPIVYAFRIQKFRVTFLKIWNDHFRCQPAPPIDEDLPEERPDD

Compound | pKi A1
Nc1nnc(-c2ccnc(C3CC3)c2)c(-c2ccccc2)n1 [1(lxxix)] | 9.35
Nc1nnc(-n2ccc(=O)cc2)c(-c2ccccc2)n1 [3(xvi)] | 7.15
Nc1nnc(-c2cc(Cl)cc(C(F)(F)F)c2)c(-c2ncccn2)n1 [1(ccxviii)] | 5.25
Cc1ccc(Sc2nnc(N)nc2-c2ccccc2)cc1 [3(xxxii)] | 7.00
Nc1nnc(-c2cnn(Cc3ccccc3)c2)c(-c2ccccc2)n1 [1(cxxxiv)] | 7.62
Cn1nc(C(F)(F)F)cc1Oc1nnc(N)nc1-c1ccccc1 [3(xxiv)] | 8.46
Nc1nnc(-c2cc(Cl)nc(C(F)F)c2)c(-c2ccccc2)n1 [1(clxxx)] | 7.76
CN(C)c1cc(-c2nnc(N)nc2-c2ccccc2)ccn1 [1(ccxi)] | 8.74
Cc1cn(-c2nnc(N)nc2-c2ccccc2)cc(C)c1=O [5(ix), 1-(3-Amino-5-phenyl-1,2,4-triazin-6-yl)-3,5-dimethylpyridin-4(1H)-one] | 7.62
Nc1nnc(N2CCOC(CO)C2)c(-c2ccccc2)n1 (stereo not drawn) [2(xxv)] | 7.49
CC1(C)C=C(c2nnc(N)nc2-c2ccccc2)CC(C)(C)O1 [1(lxxx)] | 6.01
CC(=O)Nc1cc(-c2nnc(N)nc2-c2ccccc2)ccc1O [5(vii), N-[5-(3-Amino-5-phenyl-1,2,4-triazin-6-yl)-2-hydroxyphenyl]acetamide] | 8.69
Nc1nnc(-c2ccc3occc3c2)c(-c2ccccc2)n1 [1(xxxv), 6-(1-benzofuran-5-yl)-5-phenyl-1,2,4-triazin-3-amine] | 8.20
Cc1ncccc1Oc1nnc(N)nc1-c1ccccc1 [3(xxi)] | 8.07
Cc1cc(-c2nnc(N)nc2-c2ccccc2)cc(C)[n+]1[O-] [1(ccxiii)] | 7.12
Nc1nnc(-c2ccc3cc[nH]c3c2)c(-c2ccccc2)n1 [1(xviii), 6-(1H-Indol-6-yl)-5-phenyl-1,2,4-triazin-3-amine] | 6.91
Cc1cc(-c2nnc(N)nc2-c2ccc(F)cc2)cc(N2CCC2)n1 [5(xi), 6-[2-(azetidin-1-yl)-6-methylpyridin-4-yl]-5-(4-fluorophenyl)-1,2,4-triazin-3-amine] | 6.90
[2H]C([2H])([2H])c1cc(-c2nnc(N)nc2-c2ccccc2)cc(C)n1 [5(viii), 6-(2-Methyl-6-d3-methylpyridin-4-yl)-5-phenyl-1,2,4-triazin-3-amine] | 7.26
Cc1cc(-c2nnc(N)nc2-c2ccccc2F)cc(Cl)n1 [1(clxxvi)] | 6.93
Cc1csc(Nc2nnc(N)nc2-c2ccccc2)n1 [2(xxii)] | 6.71
Nc1nnc(-c2ccc3ccccc3c2)c(-c2ccccc2)n1 [1(lxxii)] | 8.52
Nc1nnc(-c2cc(Cl)cc(Cl)c2)c(-c2ccccn2)n1 [1(cciv)] | 5.97
Nc1nnc(-c2cc(Cl)nc(CF)c2)c(-c2ccccc2)n1 [1(clxxxi)] | 7.17
CC1CCCN(c2nnc(N)nc2-c2ccccc2)C1 (stereo not drawn) [2(iii), 6-(3-Methylpiperidin-1-yl)-5-phenyl-1,2,4-triazin-3-amine] | 5.37
Nc1nnc(-c2ccc(F)c(Cl)c2)c(-c2ccccc2)n1 [1(xv), 6-(3-Chloro-4-fluorophenyl)-5-phenyl-1,2,4-triazin-3-amine] | 8.45
Cc1cc(-c2nnc(N)nc2-c2ccccc2)cc(C)c1O [1(xli)] | 7.83
Nc1nnc(-c2cccc(C(F)(F)F)c2)c(-c2ccccc2)n1 [1(ix), 5-Phenyl-6-[3-(trifluoromethyl)phenyl]-1,2,4-triazin-3-amine] | 7.81
COc1cc(OC)cc(-c2nnc(N)nc2-c2ccccc2)c1 [1(xxiv), 6-(3,5-Dimethoxyphenyl)-5-phenyl-1,2,4-triazin-3-amine] | 8.03

Same assay, conditions: CHO membranes, 1 nM [3H]DPCPX, 25° C., 1 h, read-out: pKi A1 (converted)

Compound | Ki [nM]
Nc1nnc(Oc2ccccc2)c(-c2ccccc2)n1 [3(i), 6-Phenoxy-5-phenyl-1,2,4-triazin-3-amine] | > 10000
CC1CN(c2nnc(N)nc2-c2ccccc2)CC(C)O1 (stereo not drawn) [2(iv), 6-(2,6-Dimethylmorpholin-4-yl)-5-phenyl-1,2,4-triazin-3-amine] | > 10000
CC1(C)CCCN(c2nnc(N)nc2-c2ccccc2)C1 [2(vi), 6-(3,3-Dimethylpiperidin-1-yl)-5-phenyl-1,2,4-triazin-3-amine] | > 10000
Nc1nnc(-c2cc(Cl)cc(C3CC3)c2)c(-c2ccccc2)n1 [4(ii), 6-(3-Chloro-5-cyclopropylphenyl)-5-phenyl-1,2,4-triazin-3-amine] | 37.2

Tested on: haloperidol-induced catalepsy in rats
Experiment: Catalepsy reversal test (Test B)
Assay type: in vivo, Sprague-Dawley rats
Conditions: Rattus norvegicus, p.o., 120 min pre-test time, haloperidol 0.82 mg/kg i.p., read-out: ED50, reversal of cataleptic behaviour in rats pre-treated with haloperidol
Procedure: The dopamine D2 receptor antagonist, haloperidol, induces Parkinsonism in humans and induces motor effects in rats such as catalepsy. There is considerable evidence that adenosine A2A receptor antagonists reverse haloperidol-induced motor effects in preclinical studies. […] The present study determines the ability of haloperidol-induced catalepsy in rats to be reversed by novel A2A receptor antagonists.
Haloperidol (0.82 mg/kg, i.p.; 150 min pre-test time) induces significant cataleptic behaviour in rats (average score 3.1). The effect of selected compounds of the invention (2-10 mg/kg or 0.3-3 mg/kg, p.o.; 120 min pre-test time) on catalepsy was established by administration of said compounds to rats pre-treated with haloperidol as described above.
Details of a similar test may be found in, for example, Hodgson et al., J. Pharmacol. Exp. Ther. 330, 2009.

Compound | ED50 [mg/kg]
Nc1nnc(-c2cccc(Cl)c2)c(-c2ccccc2)n1 [Example 1(vi), 6-(3-Chlorophenyl)-5-phenyl-1,2,4-triazin-3-amine] | 9.8

Same assay, conditions: dose of 1 mg/kg p.o., 120 min pre-test time

Compound | reversal of cataleptic behavior in rats pre-treated with haloperidol
Nc1nnc(-c2cc(Cl)cc(Cl)c2)c(-c2ccccc2)n1 [1(xiii), 6-(3,5-Dichlorophenyl)-5-phenyl-1,2,4-triazin-3-amine] | statistically significant
Cc1cc(-c2nnc(N)nc2-c2ccc(F)cc2)cc(Cl)n1 [Example 1(xcv), 6-(2-chloro-6-methylpyridin-4-yl)-5-(4-fluorophenyl)-1,2,4-triazin-3-amine] | statistically significant

Same assay, conditions: haloperidol 0.82 mg/kg i.p., 150 min pre-test time

Compound | catalepsy average score (maximum score of 4)
O=C(CCCN1CCC(O)(c2ccc(Cl)cc2)CC1)c1ccc(F)cc1 [Haloperidol, haloperidol, reference compound] | 3.1

Biological target: human adenosine A2a receptor (Homo sapiens (Human), UniProt P29274)
Sequence (P29274 whole entry): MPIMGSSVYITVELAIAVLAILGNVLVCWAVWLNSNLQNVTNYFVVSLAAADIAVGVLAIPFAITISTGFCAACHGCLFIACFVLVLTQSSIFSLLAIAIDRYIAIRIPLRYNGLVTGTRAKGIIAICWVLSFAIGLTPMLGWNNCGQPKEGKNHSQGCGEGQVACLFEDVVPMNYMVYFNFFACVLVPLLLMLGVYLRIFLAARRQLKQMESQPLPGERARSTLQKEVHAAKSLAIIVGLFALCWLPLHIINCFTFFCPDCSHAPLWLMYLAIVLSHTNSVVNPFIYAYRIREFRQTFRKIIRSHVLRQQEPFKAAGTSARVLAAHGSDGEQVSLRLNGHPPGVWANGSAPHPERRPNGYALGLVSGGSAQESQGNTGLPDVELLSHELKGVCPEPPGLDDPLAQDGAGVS
Experiment: HEK293-hA2a [3H]-ZM241385 binding assay (Test A)
Conditions: HEK293 membranes, 1 nM [3H]ZM241385, 25° C., 1 h
Procedure: as §1

Compound | pKi A2a
Nc1nnc(-c2ccnc(C3CC3)c2)c(-c2ccccc2)n1 [1(lxxix)] | 7.45
Nc1nnc(-n2ccc(=O)cc2)c(-c2ccccc2)n1 [3(xvi)] | 7.41
Nc1nnc(Oc2ccccc2)c(-c2ccccc2)n1 [3(i), 6-Phenoxy-5-phenyl-1,2,4-triazin-3-amine] | 7.17
Nc1nnc(-c2cc(Cl)cc(C(F)(F)F)c2)c(-c2ncccn2)n1 [1(ccxviii)] | 6.58
Nc1nnc(Oc2cccc(C(F)(F)F)c2)c(-c2ccccc2)n1 [3(v), 5-Phenyl-6-[3-(trifluoromethyl)phenoxy]-1,2,4-triazin-3-amine] | 5.96
Cc1ccc(Sc2nnc(N)nc2-c2ccccc2)cc1 [3(xxxii)] | 5.82
Nc1nnc(-c2cnn(Cc3ccccc3)c2)c(-c2ccccc2)n1 [1(cxxxiv)] | 5.62
Cn1nc(C(F)(F)F)cc1Oc1nnc(N)nc1-c1ccccc1 [3(xxiv)] | 7.39
Nc1nnc(-c2cc(Cl)nc(C(F)F)c2)c(-c2ccccc2)n1 [1(clxxx)] | 8.90
CC1CN(c2nnc(N)nc2-c2ccccc2)CC(C)O1 (stereo not drawn) [2(iv), 6-(2,6-Dimethylmorpholin-4-yl)-5-phenyl-1,2,4-triazin-3-amine] | 7.79
CN(C)c1cc(-c2nnc(N)nc2-c2ccccc2)ccn1 [1(ccxi)] | 7.71
Cc1cn(-c2nnc(N)nc2-c2ccccc2)cc(C)c1=O [5(ix), 1-(3-Amino-5-phenyl-1,2,4-triazin-6-yl)-3,5-dimethylpyridin-4(1H)-one] | 7.77
Nc1nnc(N2CCOC(CO)C2)c(-c2ccccc2)n1 (stereo not drawn) [2(xxv)] | 5.53
CC1(C)C=C(c2nnc(N)nc2-c2ccccc2)CC(C)(C)O1 [1(lxxx)] | 6.61
CC(=O)Nc1cc(-c2nnc(N)nc2-c2ccccc2)ccc1O [5(vii), N-[5-(3-Amino-5-phenyl-1,2,4-triazin-6-yl)-2-hydroxyphenyl]acetamide] | 6.73
Nc1nnc(-c2ccc3occc3c2)c(-c2ccccc2)n1 [1(xxxv), 6-(1-benzofuran-5-yl)-5-phenyl-1,2,4-triazin-3-amine] | 7.19
Cc1ncccc1Oc1nnc(N)nc1-c1ccccc1 [3(xxi)] | 6.22
Cc1cc(-c2nnc(N)nc2-c2ccccc2)cc(C)[n+]1[O-] [1(ccxiii)] | 7.51
Nc1nnc(-c2ccc3cc[nH]c3c2)c(-c2ccccc2)n1 [1(xviii), 6-(1H-Indol-6-yl)-5-phenyl-1,2,4-triazin-3-amine] | 6.75
Cc1cc(-c2nnc(N)nc2-c2ccc(F)cc2)cc(N2CCC2)n1 [5(xi), 6-[2-(azetidin-1-yl)-6-methylpyridin-4-yl]-5-(4-fluorophenyl)-1,2,4-triazin-3-amine] | 7.76
CC1(C)CCCN(c2nnc(N)nc2-c2ccccc2)C1 [2(vi), 6-(3,3-Dimethylpiperidin-1-yl)-5-phenyl-1,2,4-triazin-3-amine] | 7.39
Cc1cc(-c2nnc(N)nc2-c2ccccc2F)cc(Cl)n1 [1(clxxvi)] | 8.03
Cc1csc(Nc2nnc(N)nc2-c2ccccc2)n1 [2(xxii)] | 5.07
Nc1nnc(-c2ccc3ccccc3c2)c(-c2ccccc2)n1 [1(lxxii)] | 6.99
Nc1nnc(-c2cc(Cl)cc(Cl)c2)c(-c2ccccn2)n1 [1(cciv)] | 7.21
Nc1nnc(-c2cc(Cl)nc(CF)c2)c(-c2ccccc2)n1 [1(clxxxi)] | 8.71
CC1CCCN(c2nnc(N)nc2-c2ccccc2)C1 (stereo not drawn) [2(iii), 6-(3-Methylpiperidin-1-yl)-5-phenyl-1,2,4-triazin-3-amine] | 7.31
Nc1nnc(-c2ccc(F)c(Cl)c2)c(-c2ccccc2)n1 [1(xv), 6-(3-Chloro-4-fluorophenyl)-5-phenyl-1,2,4-triazin-3-amine] | 7.11
COc1cc(OC)cc(-c2nnc(N)nc2-c2ccccc2)c1 [1(xxiv), 6-(3,5-Dimethoxyphenyl)-5-phenyl-1,2,4-triazin-3-amine] | 6.97

Same assay, conditions: HEK293 membranes, 1 nM [3H]ZM241385, 25° C., 1 h, read-out: pKi A2a (converted)

Compound | Ki [nM]
Nc1nnc(-c2cc(Cl)cc(C3CC3)c2)c(-c2ccccc2)n1 [4(ii), 6-(3-Chloro-5-cyclopropylphenyl)-5-phenyl-1,2,4-triazin-3-amine] | 12.9
